Reference: US20160122387A1, “Angiotensin Peptide and Pharmaceutical Compositions for Disease Treatment” (UNIVERSIDADE FEDERAL DE MINAS GERAIS - UFMG, priority 2012, published 2016)

Key:
[1] = system: thoracic aortic rings of normotensive Wistar rats; assay: Vasorelaxation in thoracic aortic rings of normotensive Wistar rats pre-contracted with phenylephrine; set-up: species or system rat; settings: aortic rings of Wistar and SHR rats (FIGS. 2A and 2B)
Method: Three- to four-mm rings of the descending thoracic aorta, free from adipose and connective tissue, were maintained in a gasified solution (95% 02 and 5% CO2) of Krebs-Henseleit, at 37° C. under 1.0 g tension, 1 hour for stabilization. The presence of functional endothelium was assessed by the ability of acetylcholine [ACh] (10 μmol/L) to induce more than 70% relaxation of vessels pre-contracted with phenylephrine (Phe) ([…]). The mechanical activity, recorded isometrically by a force transducer, was fed into a recorder-amplifier and a computer equipped with an analog-digital converter board, using CVMS data acquisition/recording software.
The vessels from normotensive Wistar rats and spontaneously hypertensive rats (SHR) were pre-contracted in the same voltage level (approximately 1.0 g tension) at the submaximal concentration of phenylephrine ([…]). Arg0-Ang-(1-7) and Ang-(1-7) were added in increasing cumulative concentrations as the response to phenylephrine was stabilized. Results are presented as mean±SEM. One-way analysis of variance (ANOVA) with Newman-Keuls post test of multiple comparisons was used to compare the concentration response curves obtained in the aortic rings. The vasodilatation effect of arg0-Ang-(1-7) and Ang-(1-7) was expressed as the percentage of decrease in peak concentration induced by phenylephrine. […]

[2] = system: mesenteric artery rings of SHR; assay: Vasorelaxation in mesenteric artery rings of SHR; set-up: species or system rat; settings: expressed as percentage of decrease of phenylephrine contraction
Method: Rings (2.0 mm) of mesenteric artery (2nd and/or 3rd branches) in spontaneously hypertensive rats (SHR), free from adipose and connective tissue, were maintained in a gasified solution (95% 02 and 5% CO2) of Krebs-Hanseleit to 37° C. After a 15 minute stabilization period, the artery was stretched, gradually, to a resting tension considered optimal with respect to its inner diameter. In each arterial segment, the voltage/diameter was calculated by the internal circumference which corresponds to a transmural pressure of 100 mmHg for a relaxed vessel in situ (IC100) using software specific for standardization resistance arteries. For the experiments, the arteries were maintained with an internal circumference, IC1, calculated using the formula IC1=0.90×IC100, in which the development of strength is maximum, as previously described by Mulvany and Halpern (1977). The effective luminal diameter was determined according to the I1=IC1/π equation. The diameter of the vessels used ranged from 200 to 300 μm.
The arteries were stimulated with a high concentration of potassium chloride (KCl 120 mmol/1), in order to assess their functional integrity. […]
The presence of functional endothelium was assessed by the ability of acetylcholine [ACh] […] The mechanical activity was recorded isometrically using a myograph, and this was connected to a system for data acquisition and a computer. […]

conscious SHR = assay: Acute IV bolus administration, MAP and HR in conscious SHR; format: in vivo, rat
Method: Wistar and SHR rats were anesthetized with 2.5% tribromoethanol, intraperitoneally (1 mL/100 g). For femoral artery cannulation, cannulas made by connecting 15 cm polyethylene PESO to 4 cm of PE10 polyethylene were used, filled with saline solution (NaCl 0.9%) and heparin (100 IU/0.1 mL). After the animal was placed supine on the operating table, a trichotomy of the right inguinal region of the animal was performed. A small skin incision was made; the femoral neurovascular bundle was located and the femoral artery isolated. The cannula was introduced into the abdominal aorta through the femoral artery and was used for obtaining the cardiovascular parameters. A second cannula made by connecting 15 cm polyethylene PESO to 2 cm of PE10 polyethylene, filled with saline (0.9% NaCl), was inserted into the femoral vein for administration of peptides. After cannulation, the catheters were secured and exteriorized subcutaneously into the back of the animal, in the cervical region. The incisions were sutured and the animals placed in individual cages, with free access to water and feed. The values of mean arterial pressure (MAP) and heart rate (HR) were calculated from PA pulses and recorded by the data acquisition system (BIOPAC System, Model MP150). The pulsatile arterial pressure (PAP) was recorded by a signal sent to a transducer connected to the cannula inserted into the abdominal aorta via the femoral artery. The pressure oscillations were captured, amplified and converted by an analog/digital conversion board feeding signals to the data acquisition board. Through the card reader software, AcqKnowledge v.3.5.7 (Biopac System), PAP was continuously recorded with a sampling frequency of 2000-4000 Hz. Twenty-four hours after implantation of the cannulas was conducted, the first protocol, which consisted of acute intravenous administration of peptides was performed. For this, during the experiment, the arterial catheter was connected to the pressure transducer for the beginning of the record. After 90 minutes of cardiovascular parameters stabilization (baseline), the administration of the peptides […]-Ang-(1-7), Ang (1-7) or saline in a final volume of 300 uL was given in bolus. […] The Ang-(1-7) also was used to compare the effect induced by each peptide. Doses of 0.1 nmol/kg; 0.5 nmol/kg; 2.5 nmol/kg and 12.5 nmol/kg were administered to SHR (n=5-7 for each dose) while awake. […] After injection of the peptide or saline, cardiovascular parameters were continuously monitored for a period of 5 hours. The values of the MAP and HR were obtained every 10 minutes throughout the experimental period. Results are presented as mean±standard error of the mean. Two-way analysis of variance (ANOVA) with Bonferroni's multiple comparison post-test were used to compare the time-response curve obtained during the bolus administration in […]-Ang-(1-7) and Ang-(1-7). All statistical analyses were considered significant when p<0.05.

awake Wistar rats = assay: Acute IV bolus administration, MAP and HR in awake Wistar rats; format: in vivo, rat; settings: IV bolus 0.5 nmol/kg
Method: Wistar and SHR rats were anesthetized with 2.5% tribromoethanol, intraperitoneally (1 mL/100 g). For femoral artery cannulation, cannulas made by connecting 15 cm polyethylene PESO to 4 cm of PE10 polyethylene were used, filled with saline solution (NaCl 0.9%) and heparin (100 IU/0.1 mL). After the animal was placed supine on the operating table, a trichotomy of the right inguinal region of the animal was performed. A small skin incision was made; the femoral neurovascular bundle was located and the femoral artery isolated. The cannula was introduced into the abdominal aorta through the femoral artery and was used for obtaining the cardiovascular parameters. […] The values of mean arterial pressure (MAP) and heart rate (HR) were calculated from PA pulses and recorded by the data acquisition system (BIOPAC System, Model MP150). The pulsatile arterial pressure (PAP) was recorded by a signal sent to a transducer connected to the cannula inserted into the abdominal aorta via the femoral artery. […] Through the card reader software, AcqKnowledge v.3.5.7 (Biopac System), PAP was continuously recorded with a sampling frequency of 2000-4000 Hz. […] After injection of the peptide or saline, cardiovascular parameters were continuously monitored for a period of 5 hours. […]

Substance: Asp-Arg-Val-Tyr-Ile-His-Pro [Ang-(1-7)]
- endothelium dependence of the vasorelaxant effect [1]: endothelium-dependent
- Emax of vasorelaxation [2]: 28%
- effect on MAP (PAM) (conscious SHR; SHR, IV bolus 0.1 nmol/kg): did not significantly alter PAM
- effect on MAP (conscious SHR; SHR, IV bolus 0.5 nmol/kg, vs saline group): no significant difference
- change in heart rate (FC) (conscious SHR; SHR, IV bolus 12.5 nmol/kg, last 30 minutes of the experiment): significantly reduced the FC
- time after administration at which anti-hypertensive effect was observed (conscious SHR; SHR, IV bolus 2.5 and 12.5 nmol/kg): 110 min
- effect on MAP (conscious SHR; SHR, IV bolus 2.5 and 12.5 nmol/kg, vs saline group): significant anti-hypertensive effect
- dose comparison of anti-hypertensive effect (conscious SHR; SHR, IV bolus 2.5 vs 12.5 nmol/kg): more potent at the dose of 2.5 nmol/kg
- change in heart rate (CF) (conscious SHR; SHR, IV bolus, all doses except 12.5 nmol/kg Ang-(1-7)): no change was observed
- change in MAP, time- and dose-dependent (conscious SHR; awake SHR, acute intravenous, different doses, vs saline group): significant reduction in MAP
- change in HR (awake Wistar rats): failed to induce significant changes
- change in MAP (awake Wistar rats): failed to induce significant changes
